Assay results from US6441030B1, “3-phenyl-pyrones” (Bayer Aktiengesellschaft, priority 1998, dated 2002).

Assays:
Format in all cases: in vivo
[1] = tested on: larvae of the mustard beetle (Phaedon cochleariae); test: Phaedon larvae test (Example C); conditions: active compound concentration of 0.1% in the preparation; cabbage leaves (Brassica oleracea) dipped
Experimental: Phaedon Larvae Test Solvent: 7 parts by weight of dimethylformamide Emulsifier: 1 part by weight of alkylaryl polyglycol ether […] Cabbage leaves (Brassica oleracea) are treated by being dipped into the preparation of active compound of the desired concentration and are populated with larvae of the mustard beetle (Phaedon cochleariae) while the leaves are still moist.

[2] = tested on: Myzus persicae; test: Critical concentration test/root-systemic action, Myzus persicae (Example H); conditions: active compound concentration of 1.25 ppm in the soil; broad beans; populated after 7 days, evaluated after a further 7 days
Experimental: (§1) Critical Concentration Test/Root-systemic Action Test insect: Myzus persicae Solvent: 4 parts by weight of dimethylformamide Emulsifier: 1 part by weight of alkylaryl polyglycol ether To prepare a suitable preparation of active compound, 1 part by weight of active compound is mixed with the stated amount of solvent, the stated amount of emulsifier is added and the concentrate is diluted with water to the desired concentration. The preparation of active compound is mixed intimately with the soil. The concentration of the active compound in the preparation is virtually immaterial, only the amount by weight of active compound per volume unit of soil, which is stated in ppm (=mg/ml), being decisive. The treated soil is filled into 250 ml pots and pre-germinated broad beans are planted in these. Thus, the active compound can be taken up by the plant roots from the soil and then transported into the leaves. To assess the root-systemic effect, the leaves are populated with the abovementioned test animals after 7 days. After a further 7 days, evaluation is carried out by counting or estimating the dead animals. The root-systemic action of the active compound is derived from the number of animals killed. It is 100% if all test animals have been killed and 0% when the number of test insects that are still alive is the same as for the untreated control.

[3] = tested on: Aphis fabae; test: Critical concentration test/root-systemic action, Aphis fabae (Example G); conditions: active compound concentration of 1.25 ppm in the soil; broad beans; populated after 7 days, evaluated after a further 7 days
Experimental: as §1, with “Aphis fabae” for “Myzus persicae”, “(=mg/l),” for “(=mg/ml),”

Cc1cc(Cl)ccc1-c1c(O)c(C)c(-c2ccccn2)oc1=O [Example 1, 3-(2-methyl-4-chloro-phenyl)-4-hydroxy-5-methyl-6-(pyrid-2-yl)-pyrone]
100 per cent: efficacy (kill in %) [1] | efficacy (root-systemic action) [2] | efficacy (root-systemic action) [3]
